Reference: patent US7915291B2, “Hepatitis C virus inhibitors” (Bristol-Myers Squibb Company, priority 2002, dated 2011)
Read-outs that look alike come from different tables or passages of the source.

Key:
[1] = molecular target: HCV NS3/4A protease complex, BMS strain (UniProt P27958, C1454S/C1711G, species not given/STRAIN_BMS); test: Recombinant HCV NS3/4A protease complex FRET peptide assay (BMS strain); format: biochemical, HCV genotype 1a
Source text: Recombinant HCV NS3/4A Protease Complex FRET Peptide Assay
The purpose of this in vitro assay was to measure the inhibition of HCV NS3 protease complexes, derived from the BMS, H77C or J416S strains, as described below, by compounds of the present invention.
Serum from an HCV-infected patient was obtained from Dr. T. Wright, San Francisco Hospital. An engineered full-length cDNA (compliment deoxyribonucleic acid) template of the HCV genome (BMS strain) was constructed from DNA fragments obtained by reverse transcription-PCR(RT-PCR) of serum RNA (ribonucleic acid) and using primers selected on the basis of homology between other genotype 1a strains.
The BMS, H77C and J4L6S strains were used for production of recombinant NS3/4A protease complexes. […] Briefly, a three-lysine solubilizing tail was added at the 3′-end of the NS4A coding region. […] Briefly, NS3/4A expression was induced with 0.5 mM Isopropyl β-D-1-thiogalactopyranoside (IPTG) for 22 hr at 20° C. […] The crude protein extract was loaded on a Nickel—Nitrilotriacetic acid (Ni-NTA) column pre-equilibrated with buffer B (25 mM HEPES, pH8.0, 20% glycerol, 500 mM NaCl, 0.5% Triton-X100, 15 mM imidazole, 5 mM βME). The sample was loaded at a flow rate of 1 mL/min. The column was washed with 15 column volumes of buffer C (same as buffer B except with 0.2% Triton-X100). The protein was eluted with 5 column volumes of buffer D (same as buffer C except with 200 mM Imidazole).
NS3/4A protease complex-containing fractions were pooled and loaded on a desalting column Superdex-S200 pre-equilibrated with buffer D (25 mM HEPES, pH7.5, 20% glycerol, 300 mM NaCl, 0.2% Triton-X100, 10 mM βME). Sample was loaded at a flow rate of 1 mL/min. NS3/4A protease complex-containing fractions were pooled and concentrated to approximately 0.5 mg/ml.
The enzyme was stored at −80° C., thawed on ice and diluted prior to use in assay buffer. […] The sequence of this peptide is loosely based on the NS4A/NS4B natural cleavage site except there is an ester linkage rather than an amide bond at the cleavage site. The peptide substrate was incubated with one of the three recombinant NS3/4A complexes, in the absence or presence of a compound of the present invention, and the formation of fluorescent reaction product was followed in real time using a Cytofluor Series 4000.
The reagents were as follow: HEPES and Glycerol (Ultrapure) were obtained from GIBCO-BRL. Dimethyl Sulfoxide (DMSO) was obtained from Sigma. β-Mercaptoethanol was obtained from Bio Rad.
Substrate: 2 μM final concentration (from a 2 mM stock solution in DMSO stored at −20° C.). HCV NS3/4A type 1a (1b), 2-3 nM final concentration (from a 5 μM stock solution in 25 mM HEPES, pH7.5, 20% glycerol, 300 mM NaCl, 0.2% Triton-X100, 10 mM βME).
The assay was performed in a 96-well polystyrene black plate from Falcon. Each well contained 25 μl NS3/4A protease complex in assay buffer, 50 μof a compound of the present invention in 10% DMSO/assay buffer and 25 μl substrate in assay buffer. A control (no compound) was also prepared on the same assay plate. The enzyme complex was mixed with compound or control solution for 1 min before initiating the enzymatic reaction by the addition of substrate. The assay plate was read immediately using the Cytofluor Series 4000 (Perspective Biosystems). The instrument was set to read an […] at 25° C. Reactions were generally followed for approximately 15 minutes.
The percent inhibition was calculated with the following equation: 100−[(δFinh/δFcon)×100] where δF is the change in fluorescence over the linear range of the curve.

[2] = system: HCV replicon in Huh7 cells; test: HCV replicon cell-based assay; design: species or system HCV strain 1B; conditions: Hepatitis C virus, Huh-7; HCV replicon, Huh7 cells; read-out: EC50 range
Source text: HCV Replicon Cell-based Assay
This system enabled us to evaluate the effects of our HCV Protease compounds on HCV RNA replication. Briefly, using the HCV strain 1B sequence described in the Lohmann paper (Assession number:AJ238799), an HCV cDNA was generated encoding the 5′ internal ribosome entry site (IRES), the neomycin resistance gene, the EMCV (encephalomyocarditis virus)-IRES and the HCV nonstructural proteins, NS3-NS5B, and 3′ non-translated region (NTR). In vitro transcripts of the cDNA were transfected into the human hepatoma cell line, Huh7. […] Resulting cell lines were characterized for positive and negative strand RNA production and protein production over time.
Huh7 cells, constitutively expressing the HCV replicon, were grown in Dulbecco's Modified Eagle Media (DMEM) containing 10% Fetal calf serum (FCS) and 1 mg/ml G418 (Gibco-BRL). Cells were seeded the night before (1.5×10^4 cells/well) in 96-well tissue-culture sterile plates. Compound and no compound controls were prepared in DMEM containing 4% FCS, 1:100 Penicillin/Streptomysin, 1:100 L-glutamine and 5% DMSO in the dilution plate (0.5% DMSO final concentration in the assay). Compound/DMSO mixes were added to the cells and incubated for 4 days at 37° C. After 4 days, plates were rinsed thoroughly with Phosphate-Buffered Saline (PBS) (3 times 150 μl). The cells were lysed with 25 μl of a lysis assay reagent containing the FRET peptide (RET S1, as described for the in vitro enzyme assay). The lysis assay reagent was made from 5× cell Luciferase cell culture lysis reagent(Promega #E153A) diluted to 1× with distilled water, NaCl added to 150 mM final, the FRET peptide diluted to 10 μM final from a 2 mM stock in 100% DMSO. The plate was then placed into the Cytofluor 4000 instrument which had been set to 340 nm excitation/490 emission, automatic mode for 21 cycles and the plate read in a kinetic mode. EC50 determinations were carried out as described for the IC50 determinations.
Cells were lyzed using the Rneasy kit (Qiagen). […] All primers were designed with ABI Prism 7700 software and obtained from Biosearch Technologies, Novato, Calif. Samples containing known concentrations of HCV RNA transcript were run as standards. Using the following cycling protocol (50° C., 30 min; 95° C., 5 min; 40 cycles of 95° C., 15 sec, 60° C., 1 min), HCV RNA expression was quantitated as described in the Perkin Elmer manual using the ABI Prism 7700 Sequence Detector.

[3] = NS3/4A BMS strain; read-out: IC50 range

Structure (SMILES) | IC50 [1, 3] [nM] | EC50 [2] [nM] | IC50 ([1]; read-out: IC50 range; NS3/4A BMS strain) [nM]
C=C[C@@H]1C[C@]1(NC(=O)[C@@H]1C[C@@H](Oc2nccc3ccccc23)CN1C(=O)[C@@H](NC(=O)OCC(C)(C)C)C(C)(C)C)C(=O)NS(=O)(=O)C1CC1 [Compound 125] | < 100 | < 100 | 
C=C[C@@H]1C[C@]1(NC(=O)[C@@H]1C[C@@H](Oc2nccc3cc(OC)ccc23)CN1C(=O)[C@@H](NC(=O)OC(C)(C)C)[C@@H](C)OC(C)(C)C)C(=O)NS(=O)(=O)C1CC1 [Compound 93] | 100 to 1000 | 100 to 1000 | 
C=C[C@@H]1C[C@]1(NC(=O)[C@@H]1C[C@@H](Oc2ccnc(-c3nccs3)c2)CN1C(=O)[C@@H](NC(=O)OC1CCCC1)C(C)(C)C)C(=O)NS(=O)(=O)C1CC1 [Compound 431] | < 100 | 100 to 1000 | 
C=CC1C[C@]1(NC(=O)[C@@H]1C[C@@H](Oc2nccc3c4c(c(SC)cc23)OCO4)CN1C(=O)[C@@H](NC(=O)OC(C)(C)C)C(C)(C)C)C(=O)NS(=O)(=O)C1CC1 (stereo partly drawn) [Compound 213, BOCNH-P3(L-t-BuGly)-P2[(4R)-(4-methylthio-1,3-dioxa-7-aza-cyclopenta[a]naphthalen-6-yloxy)-S-proline]-P1(1R,2S VinylAcca)-CONHSO2Cyclopropane] | < 100 | < 100 | 
C=C[C@@H]1C[C@]1(NC(=O)[C@@H]1C[C@@H](Oc2nccc3ccccc23)CN1C(=O)[C@@H](NC(=O)[C@@H]1COc2ccccc2O1)C(C)(C)C)C(=O)NS(=O)(=O)C1CC1 [Compound 133] | 100 to 1000 | 1000 to 10000 | 
C=C[C@@H]1C[C@]1(NC(=O)[C@@H]1C[C@@H](Oc2nccc3cc(OC)ccc23)CN1C(=O)[C@@H](NC(=O)N[C@H](C(=O)OC(C)(C)C)C(C)C)C(C)(C)C)C(=O)NS(=O)(=O)C1CC1 [Compound 152] | < 100 | < 100 | 
C=CC1C[C@]1(NC(=O)[C@@H]1C[C@@H](Oc2ccc3nccc(Cl)c3c2)CN1C(=O)[C@@H](NC(=O)OC(C)(C)C)C(C)(C)C)C(=O)NS(=O)(=O)C1CC1 (stereo partly drawn) [Compound 240, BOCNH-P3(L-t-BuGly)-P2[(4R)-(4-chloroquinoline-6-oxo)-S -proline]-P1(1R,2S VinylAcca)-CONHSO2Cyclopropane] | < 100 | < 100 | 
C=C[C@@H]1C[C@]1(NC(=O)[C@@H]1C[C@@H](Oc2ccnc3cc(OC)ccc23)CN1C(=O)[C@@H](NC(=O)OC(C)(C)C)C(C)(C)C)C(=O)NS(=O)(=O)C1CC1 [Compound 375] | < 100 | < 100 | 
C=C[C@@H]1C[C@]1(NC(=O)[C@@H]1C[C@@H](Oc2nccc3cc(OC)ccc23)CN1C(=O)[C@@H](NC(=O)OC(C)(C)C)C1CCCCC1)C(=O)NS(=O)(=O)C1CC1 [Compound 143] | < 100 | < 100 | 
C=CC1C[C@]1(NC(=O)[C@@H]1C[C@@H](COc2ccnc(-c3cccs3)c2)CN1C(=O)[C@@H](NC(=O)OC)C(C)(C)C)C(=O)NS(=O)(=O)C1CC1 (some centres unmarked) [Compound 350] |  | 10000 to 100000 | 100 to 1000
C=CC1C[C@]1(NC(=O)[C@@H]1C[C@@H](Oc2cc(C(F)(F)F)nc3ccccc23)CN1C(=O)[C@@H](NC(=O)OC(C)(C)C)C(C)(C)C)C(=O)NS(=O)(=O)C1CC1 (stereo partly drawn) [Compound 180, BOCNH-P3(L-tert-BuGly)-P2[(4R)-(2-trifluoromethyl quinolin-4-oxo)-S-proline]-P1(1R,2S Vinyl Acca)-CONHSO2-Cyclopropane] | < 100 | 100 to 1000 | 
C=C[C@@H]1C[C@]1(NC(=O)[C@@H]1C[C@@H](Oc2nccc3c2ccc2occc23)CN1C(=O)[C@@H](NC(=O)OC(C)(C)C)C(C)(C)C)C(=O)NS(=O)(=O)C1CC1 [Compound 268] | < 100 | < 100 | 
C=CC1C[C@]1(NC(=O)[C@@H]1C[C@@H](Oc2nnc(O)c3ccccc23)CN1C(=O)[C@@H](NC(=O)OC(C)(C)C)C(C)(C)C)C(=O)NS(=O)(=O)C1CC1 (stereo partly drawn) [Compound 202, BOCNH-P3(L-t-BuGly)-P2[(4R)-(4-hydroxyphthalazine-1-oxo)-S -proline]P1(1R,2S VinylAcca)-CONHSO2Cyclopropane] | < 100 | 1000 to 10000 | 
C=C[C@@H]1C[C@]1(NC(=O)[C@@H]1CC(Oc2nccc3cc(OC)ccc23)CN1C(=O)[C@@H](NC(=O)NC(C)(C)c1ccccc1)C(C)(C)C)C(=O)NS(=O)(=O)C1CC1 (some centres unmarked) [Compound 83] | < 100 | 100 to 1000 | 
C=CC1C[C@]1(NC(=O)[C@@H]1C[C@@H](Oc2cc(C(F)(F)F)nc3c(Cl)cccc23)CN1C(=O)[C@@H](NC(=O)OC(C)(C)C)C(C)(C)C)C(=O)NS(=O)(=O)C1CC1 (stereo partly drawn) [Compound 183, BOCNH-P3(L-tert-BuGly)-P2[(4R)-(2-trifluoromethyl, 8-chloro quinolin-4-oxo)-S-proline]-P1(1R,2S Vinyl Acca)-CONHSO2-Cyclopropane] | < 100 | < 100 | 
C=CC1CC1(NC(=O)C1CC(Oc2nc(C3CC3)nc3cc(OC)c(OC)cc23)CN1C(=O)[C@@H](NC(=O)OC(C)(C)C)C(C)(C)C)C(=O)NS(=O)(=O)C(C)C (mixture of isomers) [Compound 46] | 100 to 1000 | 1000 to 10000 | 
C=C[C@@H]1C[C@]1(NC(=O)[C@@H]1C[C@@H](Oc2ncc(OC)c3ccc(Cl)cc23)CN1C(=O)[C@@H](NC(=O)OC(C)(C)C)C(C)(C)C)C(=O)NS(=O)(=O)C1CC1 [Compound 277] |  | < 100 | 
C=C[C@@H]1CC1(NC(=O)[C@@H]1CC(Oc2nccc3cc(OC)ccc23)CN1C(=O)[C@@H](NC(=O)NC(C)(C)C)C(C)(C)C)C(=O)NS(=O)(=O)C1CC1 (some centres unmarked) [Compound 74] |  | < 100 | 
C=C[C@@H]1C[C@]1(NC(=O)[C@@H]1C[C@@H](Oc2nccc3cc(OC)ccc23)CN1C(=O)[C@@H](NC(=O)N[C@H](C(=O)OC)C(C)(C)C)C(C)(C)C)C(=O)NS(=O)(=O)C1CC1 [Compound 146] |  | < 100 | 
